{"source": "patent US20230274811A1", "about": "“METHODS OF MAKING PROSTATE CANCER TREATMENT DECISIONS” (Progenics Pharmaceuticals, Inc., priority 2020, published 2023)", "test_system": "biochemically recurrent prostate cancer", "assay": "CONDOR: 18F-DCFPyL PET/CT correct localization rate, detection rate and PPV vs composite standard of truth", "type": "in vivo, men", "details": "for PPV % (95% CI): patient level", "text": "1. Correct Localization Rate (CLR), defined as percentage of subjects with a one-to-one correspondence between localization of at least one lesion identified on ^18F-DCFPyL PET/CT imaging and the composite truth standard, defined as either evaluable histopathology, informative correlative imaging, or PSA response after radiation therapy.\nMen ≥18 years of age with a rising PSA after definitive PCa therapy and negative or equivocal imaging were enrolled. […] The primary endpoint of this study was the correct localization rate (CLR). CLR is defined as the percentage of patients with a one-to-one correspondence between localization of at least one lesion identified by ^18F-DCFPyL PET/CT and a composite standard of truth (SOT). SOT was determined by two central readers and included either histopathology or another standard imaging modality (i.e., fluciclovine-PET/CT, CT/MRI, bone scan) or alternatively, by a post-treatment PSA change for irradiated lesions.\nMethods: Men ≥18 years—with rising PSA after definitive therapy and negative or equivocal standard of care imaging (e.g., CT/MRI, bone scintigraphy) were enrolled. A single 9 mCi (333 MBq)±20% dose of PyL was injected, followed by PET/CT 1-2 hours later. Primary endpoint was correct localization rate (CLR), defined as percentage of pts with a 1:1 correspondence between at least one lesion identified by PyL-PET/CT and the composite standard of truth: pathology, correlative imaging, or PSA response. […] The secondary endpoint, impact of PyL-PET/CT on clinical management of pts was based on the treating physician's documented clinical plans before and after PyL-PET/CT.\nMen with a PSA ≥0.2 ng/mL after surgery or ≥2 ng/mL above the nadir after radiation therapy were eligible for enrollment. The primary endpoint was the correct localization rate (CLR) defined as positive predictive value with an additional requirement of anatomical lesion colocalization between ^18F-DCFPyL-PET/CT and a composite standard of truth (SOT). The SOT consisted of, in descending priority: 1) histopathology, 2) correlative imaging findings determined by two central readers, or 3) post-radiation PSA response. […] The impact of ^18F-DCFPyL-PET/CT as defined by change in management intent, and safety were evaluated as secondary endpoints.\nPatients voided prior to imaging, and PET and non-contrast CT images were acquired from the mid-thigh through the skull vertex. All ^18F-DCFPyL-PET/CT scans were submitted to the central imaging core laboratory for assessment. Patients with positive ^18F-DCFPyL-PET/CT scans based on local interpretation were scheduled for post-^18F-DCFPyL-PET/CT follow-up to verify suspected lesion(s) based on a composite standard of truth (SOT). (FIG. 16)\nBecause of the expected absence of an amenable lesion for histologic verification in all patients, a composite SOT was employed based on assessment performed or initiated within 60 days following ^18F-DCFPyL-PET/CT. These reference standards were defined (in descending priority) as (1) evaluable histopathology results from prostatectomy, salvage pelvic lymph node dissection or biopsy; (2) imaging findings using ^18F-fluciclovine or ^11C-choline PET, or focused MRI or CT; or (3) if neither of the above was available or informative, confirmed PSA response up to 9 months post-radiation initiation (with no concomitant ADT) of all PET-positive foci. PSA response was defined as PSA decline by ≥50% from baseline that was confirmed on repeat measurement within 4 weeks, based on central laboratory results.\nA central imaging core laboratory was employed to independently manage image handling, reader training, reader sessions and data collection. […] The readers had no access to any clinical information, including PSA values or other imaging available for a patient. […]", "key": {"[1]": {"details": "SOT Correlative imaging n=100, Reader 3"}, "[2]": {"details": "SOT Histopathology n=31, Reader 1"}, "[3]": {"details": "SOT Histopathology n=31, Reader 2"}, "[4]": {"details": "SOT Histopathology n=31, Reader 3"}, "[5]": {"details": "SOT PET-Fluciclovine n=71, Reader 1"}, "[6]": {"details": "SOT PET-Fluciclovine n=71, Reader 2"}, "[7]": {"details": "SOT PET-Fluciclovine n=71, Reader 3"}}}
{"smiles": "O=C(O)CC[C@H](NC(=O)N[C@@H](CCCCNC(=O)c1ccc([18F])nc1)C(=O)O)C(=O)O", "note": "[18F-DCFPyL, 2-(3-{1-carboxy-5-[(6-[^18F]fluoro-pyridine-3-carbonyl)-amino]-pentyl}ureido)-pentanedioic acid]", "values": [{"measurement": "CLR (TP/TP + FP)", "setting": "[1]", "result": "(86.1%)"}, {"measurement": "Negative PyL Scan", "setting": "[1]", "result": "(23.0%)"}, {"measurement": "PPV (TP/TP + FP)", "setting": "[1]", "result": "(87.0%)"}, {"measurement": "Positive PyL Scan", "setting": "[1]", "result": "(77.0%)"}, {"measurement": "CLR (TP/TP + FP)", "setting": "[2]", "result": "(78.6%)"}, {"measurement": "Negative PyL Scan", "setting": "[2]", "result": "(6.5%)"}, {"measurement": "PPV (TP/TP + FP)", "setting": "[2]", "result": "(93.1%)"}, {"measurement": "Positive PyL Scan", "setting": "[2]", "result": "(93.5%)"}, {"measurement": "CLR (TP/TP + FP)", "setting": "[3]", "result": "(82.8%)"}, {"measurement": "Negative PyL Scan", "setting": "[3]", "result": "(3.2%)"}, {"measurement": "PPV (TP/TP + FP)", "setting": "[3]", "result": "(93.3%)"}, {"measurement": "Positive PyL Scan", "setting": "[3]", "result": "(96.8%)"}, {"measurement": "CLR (TP/TP + FP)", "setting": "[4]", "result": "(80.8%)"}, {"measurement": "Negative PyL Scan", "setting": "[4]", "result": "(9.7%)"}, {"measurement": "PPV (TP/TP + FP)", "setting": "[4]", "result": "(92.9%)"}, {"measurement": "Positive PyL Scan", "setting": "[4]", "result": "(90.3%)"}, {"measurement": "CLR (TP/TP + FP)", "setting": "SOT MRI n=23, Reader 1", "result": "(80.0%)"}, {"measurement": "Negative PyL Scan", "setting": "SOT MRI n=23, Reader 1", "result": "(30.4%)"}, {"measurement": "Positive PyL Scan", "setting": "SOT MRI n=23, Reader 1", "result": "(69.6%)"}, {"measurement": "CLR (TP/TP + FP)", "setting": "SOT MRI n=23, Reader 2", "result": "(86.7%)"}, {"measurement": "Negative PyL Scan", "setting": "SOT MRI n=23, Reader 2", "result": "(30.4%)"}, {"measurement": "Positive PyL Scan", "setting": "SOT MRI n=23, Reader 2", "result": "(69.6%)"}, {"measurement": "CLR (TP/TP + FP)", "setting": "SOT MRI n=23, Reader 3", "result": "(86.7%)"}, {"measurement": "Negative PyL Scan", "setting": "SOT MRI n=23, Reader 3", "result": "(30.4%)"}, {"measurement": "Positive PyL Scan", "setting": "SOT MRI n=23, Reader 3", "result": "(69.6%)"}, {"measurement": "CLR (TP/TP + FP)", "setting": "[5]", "result": "(90.9%)"}, {"measurement": "Negative PyL Scan", "setting": "[5]", "result": "(14.1%)"}, {"measurement": "Positive PyL Scan", "setting": "[5]", "result": "(85.9%)"}, {"measurement": "CLR (TP/TP + FP)", "setting": "[6]", "result": "(90.0%)"}, {"measurement": "Negative PyL Scan", "setting": "[6]", "result": "(23.9%)"}, {"measurement": "Positive PyL Scan", "setting": "[6]", "result": "(76.1%)"}, {"measurement": "CLR (TP/TP + FP)", "setting": "[7]", "result": "(86.8%)"}, {"measurement": "Negative PyL Scan", "setting": "[7]", "result": "(19.7%)"}, {"measurement": "Positive PyL Scan", "setting": "[7]", "result": "(80.3%)"}, {"measurement": "CLR (TP/TP + FP)", "setting": "SOT PSA response n=1, Reader 1", "result": "(100%)"}, {"measurement": "Negative PyL Scan", "setting": "SOT PSA response n=1, Reader 1", "result": "(0.0%)"}, {"measurement": "PPV (TP/TP + FP)", "setting": "SOT PSA response n=1, Reader 1", "result": "(100%)"}, {"measurement": "Positive PyL Scan", "setting": "SOT PSA response n=1, Reader 1", "result": "(100%)"}, {"measurement": "CLR (TP/TP + FP)", "setting": "SOT PSA response n=1, Reader 2", "result": "(100%)"}, {"measurement": "Negative PyL Scan", "setting": "SOT PSA response n=1, Reader 2", "result": "(0.0%)"}, {"measurement": "PPV (TP/TP + FP)", "setting": "SOT PSA response n=1, Reader 2", "result": "(100%)"}, {"measurement": "Positive PyL Scan", "setting": "SOT PSA response n=1, Reader 2", "result": "(100%)"}, {"measurement": "CLR (TP/TP + FP)", "setting": "SOT PSA response n=1, Reader 3", "result": "(100%)"}, {"measurement": "Negative PyL Scan", "setting": "SOT PSA response n=1, Reader 3", "result": "(0.0%)"}, {"measurement": "PPV (TP/TP + FP)", "setting": "SOT PSA response n=1, Reader 3", "result": "(100%)"}, {"measurement": "Positive PyL Scan", "setting": "SOT PSA response n=1, Reader 3", "result": "(100%)"}, {"measurement": "CLR (TP/TP + FP)", "setting": "all patients n=208, Reader 1", "result": "(85.6%)"}, {"measurement": "Negative PyL Scan", "setting": "all patients n=208, Reader 1", "result": "(34.1%)"}, {"measurement": "Positive PyL Scan", "setting": "all patients n=208, Reader 1", "result": "(65.9%)"}, {"measurement": "CLR (TP/TP + FP)", "setting": "all patients n=208, Reader 2", "result": "(87.0%)"}, {"measurement": "Negative PyL Scan", "setting": "all patients n=208, Reader 2", "result": "(40.4%)"}, {"measurement": "Positive PyL Scan", "setting": "all patients n=208, Reader 2", "result": "(59.6%)"}, {"measurement": "CLR (TP/TP + FP)", "setting": "all patients n=208, Reader 3", "result": "(84.8%)"}, {"measurement": "Negative PyL Scan", "setting": "all patients n=208, Reader 3", "result": "(40.9%)"}, {"measurement": "Positive PyL Scan", "setting": "all patients n=208, Reader 3", "result": "(59.1%)"}, {"measurement": "lesion detection rate", "setting": "baseline PSA <0.5 ng/mL", "result": 36.2, "unit": "%"}, {"measurement": "median CLR", "setting": "baseline PSA <0.5 ng/mL", "result": 73.3, "unit": "%"}, {"measurement": "lesion detection rate", "setting": "baseline PSA ≥5 ng/mL", "result": 96.7, "unit": "%"}, {"measurement": "median CLR", "setting": "baseline PSA ≥5 ng/mL", "result": 96.4, "unit": "%"}, {"measurement": "PPV % (95% CI)", "setting": "CONDOR Reader 4", "result": 90, "unit": "%"}, {"measurement": "PPV % (95% CI)", "setting": "CONDOR Reader 5", "result": 91, "unit": "%"}, {"measurement": "PPV % (95% CI)", "setting": "CONDOR Reader 6", "result": 89, "unit": "%"}, {"measurement": "CLR", "setting": "patients with PSA 0.2 to <2.0 ng/mL", "result": "> 73", "unit": "%"}, {"measurement": "PET/CT finding, case study 2", "setting": "person, PSA 1.27 ng/mL, confirmed by contrast-MRI", "result": "lumbar spine metastasis"}, {"measurement": "PET/CT finding, case study 1", "setting": "person, PSA 1.92 ng/mL, confirmed by pathology", "result": "L common iliac and multiple retroperitoneal lymph node lesions"}, {"measurement": "PET/CT finding, case study 3", "setting": "person, PSA 1.78, confirmed by biopsy", "result": "a thoracic spine lesion"}]}
